Read-outs that look alike come from different tables or passages of the source.
Biological target: T1, AHR (Mus musculus, UniProt P30561)
T1 sequence (P30561 1-848 P471L/N533S/M589L): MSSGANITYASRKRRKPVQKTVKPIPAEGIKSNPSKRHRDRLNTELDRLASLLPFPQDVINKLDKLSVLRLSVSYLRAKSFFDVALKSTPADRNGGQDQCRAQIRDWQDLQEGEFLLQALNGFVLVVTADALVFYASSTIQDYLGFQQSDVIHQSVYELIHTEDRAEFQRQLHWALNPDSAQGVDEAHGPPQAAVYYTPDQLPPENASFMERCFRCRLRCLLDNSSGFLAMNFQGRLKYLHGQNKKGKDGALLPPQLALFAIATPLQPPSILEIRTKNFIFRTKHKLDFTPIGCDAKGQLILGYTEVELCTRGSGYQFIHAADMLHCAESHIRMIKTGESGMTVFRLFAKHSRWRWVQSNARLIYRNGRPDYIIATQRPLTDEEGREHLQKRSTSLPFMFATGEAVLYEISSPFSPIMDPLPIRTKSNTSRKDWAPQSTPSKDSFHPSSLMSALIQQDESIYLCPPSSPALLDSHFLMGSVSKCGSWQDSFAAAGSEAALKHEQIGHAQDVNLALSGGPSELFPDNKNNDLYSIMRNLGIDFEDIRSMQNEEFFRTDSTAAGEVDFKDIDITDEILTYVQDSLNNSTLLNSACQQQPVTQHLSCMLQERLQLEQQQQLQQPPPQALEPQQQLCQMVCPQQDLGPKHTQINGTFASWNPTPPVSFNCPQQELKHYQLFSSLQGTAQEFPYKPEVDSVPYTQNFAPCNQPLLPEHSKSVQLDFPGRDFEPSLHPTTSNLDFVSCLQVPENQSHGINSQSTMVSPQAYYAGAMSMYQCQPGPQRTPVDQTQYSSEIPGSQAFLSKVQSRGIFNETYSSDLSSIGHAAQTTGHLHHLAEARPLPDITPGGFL
Test: In vitro assay 3: antagonism in mouse cell line (AHR transactivation, firefly luciferase reporter, kynurenic acid prestimulated)
Assay type: cell-based
Experimental: Examples were tested in selected biological assays one or more times. When tested more than once, data are reported as either average values or as median values, wherein • the average value, also referred to as the arithmetic mean value, represents the sum of the values obtained divided by the number of times tested, and • the median value represents the middle number of the group of values when ranked in ascending or descending order. If the number of values in the data set is odd, the median is the middle value. If the number of values in the data set is even, the median is the arithmetic mean of the two middle values.
In addition the cells were stably transfected with an AHR inducible firefly luciferase reporter gene construct that carried AHR-binding sites (DRE) in its promoter. Kynurenic acid is an endogenous AHR activating ligand and was used to prestimulate test cells prior to testing the antagonistic properties of compounds.
As positive inhibition control cells without addition of kynurenic acid were incubated. Normalization was done by positive and negative controls.
Firefly luciferase activity was determined by the SteadyGlo Luciferase Assay System (Promega, #E2550).

[1] = mouse Hepa 1c1c7 cells, 200 μM kynurenic acid, 20 hours, read-out: AHR Antagonism Mouse IC50
[2] = Hepa 1c1c7 cells, 200 μM kynurenic acid, 20 hours, firefly luciferase reporter, read-out: AHR Antagonism Mouse IC50

| SMILES | IC50 [1] | other results |
| --- | --- | --- |
| O=C1NCCCC[C@@H]1Nc1nc2c(Br)cccc2c2nc(-c3ccc(F)cc3)nn12 [Example 210, (3S)-3-{[7-bromo-2-(4-fluorophenyl)[1,2,4]triazolo[1,5-c]quinazolin-5-yl]amino}azepan-2-one] | 5.01 nM |  |
| CCCC[C@H](Nc1nc2ccccc2c2nc(-c3ccccc3OC(F)(F)F)nn12)C(N)=O [Example 467, N^2-{2-[2-(trifluoromethoxy)phenyl][1,2,4]triazolo[1,5-c]quinazolin-5-yl}norleucinamide] | 32.8 nM |  |
| Cn1cc(-c2nc3c4cccc(Br)c4nc(N[C@@H]4CNCCNC4=O)n3n2)cn1 [Example 267, (6R)-6-{[7-bromo-2-(1-methyl-1H-pyrazol-4-yl)[1,2,4]triazolo[1,5-c]quinazolin-5-yl]amino}-1,4-diazepan-5-one] | 24.7 nM |  |
| COc1cccc(-c2nc3c4cc(C)ccc4nc(N[C@H]4CCCCNC4=O)n3n2)c1 [Example 156, (3S)-3-{[2-(3-methoxyphenyl)-9-methyl[1,2,4]triazolo[1,5-c]quinazolin-5-yl]amino}azepan-2-one] | 14.2 nM |  |
| O=C1NCCNCC1Nc1nc2cccc(Cl)c2c2nc(-c3ccc(F)cc3)nn12 (single isomer, unassigned) [Example 299, 6-{[10-chloro-2-(4-fluorophenyl)[1,2,4]triazolo[1,5-c]quinazolin-5-yl]amino}-1,4-diazepan-5-one] | 37.3 nM |  |
| Cn1cc(-c2nc3c4ccccc4nc(N[C@H](CO)C(N)=O)n3n2)cn1 [Example 16, N^2-[2-(1-methyl-1H-pyrazol-4-yl)[1,2,4]triazolo[1,5-c]quinazolin-5-yl]-D-serinamide] | > 20000 nM |  |
| COc1ccc(-c2nc3c4ccccc4nc(N[C@H](C)C(=O)O)n3n2)cc1 [Example 658, N-[2-(4-methoxyphenyl)[1,2,4]triazolo[1,5-c]quinazolin-5-yl]-D-alanine] | 450 nM |  |
| O=C1NCCCC[C@@H]1Nc1nc2ccccc2c2nc(-c3ccccc3Br)nn12 [Example 453, (3S)-3-{[2-(2-bromophenyl)[1,2,4]triazolo[1,5-c]quinazolin-5-yl]amino}azepan-2-one] | 17.5 nM |  |
| COc1cccc(-c2nc3c4ccccc4nc(N[C@H](CCSC)C(N)=O)n3n2)c1 [Example 96, N^2-[2-(3-methoxyphenyl)[1,2,4]triazolo[1,5-c]quinazolin-5-yl]-D-methioninamide] | 269 nM |  |
| COc1ccc(-c2nc3c4ccccc4nc(NC4CCCNC4=O)n3n2)cc1 (single isomer, unassigned) [Example 37, 3-{[2-(4-methoxyphenyl)[1,2,4]triazolo[1,5-c]quinazolin-5-yl]amino}piperidin-2-one] | 238 nM |  |
| O=C1NCCCC[C@@H]1Nc1nc2ccccc2c2nc(-c3cc(C(F)(F)F)ccn3)nn12 [Example 364] |  | IC50 (read-out: AHR Antagonism Mouse IC50, mouse Hepa 1c1c7 cells, 200 μM kynurenic acid, 20 hours): 247 nM |
| O=C1NCCCC1Nc1nc2ccccc2c2nc(-c3ccc(F)cc3)nn12 (stereo not drawn) [Example 72, 3-{[2-(4-fluorophenyl)[1,2,4]triazolo[1,5-c]quinazolin-5-yl]amino}piperidin-2-one] | 10 nM |  |
| C[C@@H](Nc1nc2ccccc2c2nc(-c3ccccc3OC(F)(F)F)nn12)C(=O)NCCN(C)C [Example 792, N-[2-(dimethylamino)ethyl]-N^2-{2-[2-(trifluoromethoxy)phenyl][1,2,4]triazolo[1,5-c]quinazolin-5-yl}-D-alaninamide] |  | IC50 [2]: 28.7 nM |
| CC[C@H](Nc1nc2ccccc2c2nc(-c3ccccc3OC(F)(F)F)nn12)C(N)=O [Example 462, (2S)-2-({2-[2-(trifluoromethoxy)phenyl][1,2,4]triazolo[1,5-c]quinazolin-5-yl}amino)butanamide] | 81.2 nM |  |
| COc1cccc(-c2nc3c4ccccc4nc(NC(C)(C)C(N)=O)n3n2)c1 [Example 98, N^2-[2-(3-methoxyphenyl)[1,2,4]triazolo[1,5-c]quinazolin-5-yl]-2-methylalaninamide] | 1140 nM |  |
| CN1CC[C@@H](Nc2nc3ccccc3c3nc(-c4ccc(OC(F)(F)F)cc4)nn23)C1=O [Example 328, (3R)-1-methyl-3-({2-[4-(trifluoromethoxy)phenyl][1,2,4]triazolo[1,5-c]quinazolin-5-yl}amino)pyrrolidin-2-one] | 19.3 nM |  |
| O=C1NCCCC[C@H]1Nc1nc2ccccc2c2nc(-c3cc(Cl)ccc3OC(F)(F)F)nn12 [Example 497, (3R)-3-({2-[5-chloro-2-(trifluoromethoxy)phenyl][1,2,4]triazolo[1,5-c]quinazolin-5-yl}amino)azepan-2-one] | 57.1 nM |  |
| O=C1NCCCC[C@@H]1Nc1nc2ccccc2c2nc(-c3ccc(F)cc3)nn12 [Example 71, (3S)-3-{[2-(4-fluorophenyl)[1,2,4]triazolo[1,5-c]quinazolin-5-yl]amino}azepan-2-one] | 3.86 nM |  |
| Cn1cc(-c2nc3c4cccc(C(F)(F)F)c4nc(NC4C(=O)NCC4(C)C)n3n2)cn1 (single isomer, unassigned; (+)) [Example 730, (+)-4,4-dimethyl-3-{[2-(1-methyl-1H-pyrazol-4-yl)-7-(trifluoromethyl)[1,2,4]triazolo[1,5-c]quinazolin-5-yl]amino}pyrrolidin-2-one] | > 20000 nM |  |
| COc1ccc(-c2nc3c4cccc(C)c4nc(N[C@H]4CNCCNC4=O)n3n2)cc1 [Example 970, (6S)-6-{[2-(4-methoxyphenyl)-7-methyl[1,2,4]triazolo[1,5-c]quinazolin-5-yl]amino}-1,4-diazepan-5-one] |  | IC50 [2]: 52.9 nM |
| N#Cc1ccc(-c2nc3c4cccc(C(F)(F)F)c4nc(N[C@@H]4CCCCNC4=O)n3n2)cc1 [Example 671, 4-[5-{[(3R)-2-oxoazepan-3-yl]amino}-7-(trifluoromethyl)[1,2,4]triazolo[1,5-c]quinazolin-2-yl]benzonitrile] | 0.744 nM |  |
| O=C1NCCNCC1Nc1nc2cccc(Cl)c2c2nc(-c3ccc(F)cc3)nn12 (stereo not drawn) [Example 293, 6-{[10-chloro-2-(4-fluorophenyl)[1,2,4]triazolo[1,5-c]quinazolin-5-yl]amino}-1,4-diazepan-5-one] | 56.1 nM |  |
| CC[C@@H](Nc1nc2ccccc2c2nc(-c3cccc(OC)c3)nn12)C(=O)O [Example 95, (2R)-2-{[2-(3-methoxyphenyl)[1,2,4]triazolo[1,5-c]quinazolin-5-yl]amino}butanoic acid] | 399 nM |  |
| COc1ccc(-c2nc3c4c(Cl)cccc4nc(NC4CNCCNC4=O)n3n2)cc1 (single isomer, unassigned) [Example 296, 6-{[10-Chloro-2-(4-methoxyphenyl)[1,2,4]triazolo[1,5-c]quinazolin-5-yl]amino}-1,4-diazepan-5-one] | 73.1 nM |  |
| O=C1NCCCC[C@H]1Nc1nc2c(Br)cc(Br)cc2c2nc(-c3ccc(F)cc3)nn12 [Example 591, (3R)-3-{[7,9-dibromo-2-(4-fluorophenyl)[1,2,4]triazolo[1,5-c]quinazolin-5-yl]amino}azepan-2-one] | 2420 nM |  |
| COc1ccc(-c2nc3c4ccccc4nc(N[C@H](CO)C(N)=O)n3n2)cc1 [Example 26, N^2-[2-(4-methoxyphenyl)[1,2,4]triazolo[1,5-c]quinazolin-5-yl]-D-serinamide] | 16.7 nM |  |
| COc1ccc(-c2nc3c4cc(C)ccc4nc(N[C@@H]4CNCCNC4=O)n3n2)cc1 [Example 280, (6R)-6-{[2-(4-methoxyphenyl)-9-methyl[1,2,4]triazolo[1,5-c]quinazolin-5-yl]amino}-1,4-diazepan-5-one] | 33.3 nM |  |
| O=C1NCCNC[C@H]1Nc1nc2c(Br)cccc2c2nc(-c3ccc(F)cc3)nn12 [Example 269, (6R)-6-{[7-bromo-2-(4-fluorophenyl)[1,2,4]triazolo[1,5-c]quinazolin-5-yl]amino}-1,4-diazepan-5-one] | 1.2 nM |  |
| COc1ccc(-c2nc3c4ccccc4nc(N[C@H](CC(C)C)C(N)=O)n3n2)cc1 [Example 27, N^2-[2-(4-methoxyphenyl)[1,2,4]triazolo[1,5-c]quinazolin-5-yl]-D-leucinamide] | 9.69 nM |  |
| O=C1NCCCC[C@H]1Nc1nc2c(C(F)(F)F)cccc2c2nc(-c3ccc(Cl)cc3OC(F)(F)F)nn12 [Example 672, (3R)-3-({2-[4-chloro-2-(trifluoromethoxy)phenyl]-7-(trifluoromethyl)[1,2,4]triazolo[1,5-c]quinazolin-5-yl}amino)azepan-2-one] | 4.35 nM |  |
